pIC50: −log10 of the molar value.
Experiments:
Assay in all cases: Proliferation Assay
Type in all cases: cell-based
[1] = test system: SNB75 (brain); conditions: Homo sapiens, SNB-75, 72 h, read-out: IC50 inhibition of cell growth
Experimental: (§1) For the determination of the inhibitory capacity of compounds of the present invention (in the following: “test compound(s)”) on cell growth, cancer cells were seeded into microtitre plates, treated with different concentrations of test compound or left untreated, and after 72 h the protein content was determined as an equivalent for the cell number.
(§2) Test compounds were dissolved in 100% DMSO and predilutions in cell culture medium were prepared with a final concentration of 0.1% DMSO in medium. The cell culture medium for dilution of the test compounds, consecutive culturing of cell lines and usage during the assay was a cell line specific medium as recommended by the cell line supplier and identical for all three applications mentioned above. After a 24-hour pre-growth period of the seeded cancer cells, the test compound containing media or medium containing 0.1% DMSO as control was added to the cells. The cells were allowed to grow at 37° C. for 72 hours. In addition, all experiments contained a few plates with cells that were processed for measurement immediately after the 24 hours recovery period. These plates contained information about the cell number that existed before treatment, at time zero, and served to calculate the cytotoxicity and/or growth inhibitory effects.
(§3) After treatment, cells were precipitated by addition of 10% TCA (trichloracetic acid). Prior to fixation, the media was aspirated. After an hour of incubation at 4° C. the plates were washed twice with 400 μl of deionized water. Cells were then stained with 100 μl of a 0.08% wt/v SRB (sulforhodamine). The plates were allowed to sit for at least 30 min and washed six times with 1% acetic acid to remove unbound staining agent. The plates were left to dry at room temperature and bound SRB was solubilized with 100 μl of 10 mM Tris base. Measurement of optical density was performed at 560 nm on a Victor 2 plate reader (Perkin Elmer, Germany).
(§4) One common way to express the effect of an anticancer agent is to measure cell viability and survival in the presence of the test agent as % Treated/Control×100. The relationship between the viability and dose is called a dose response curve. Those dose response curves were determined by using algorithms developed by Oncolead GmbH & Co. KG, Munich, Germany, that can be compared to commercial applications, e.g. XLfit™ (ID Business Solutions Ltd., Guildford, UK) algorithm “205”.

[2] = test system: HS729 (muscle); conditions: 72 h, read-out: IC50 inhibition of cell growth
Experimental: as §1, §2, §3, §4

[3] = test system: COLO205 (colon); conditions: Homo sapiens, COLO 205, 72 h, read-out: IC50 inhibition of cell growth
Experimental: as §1, §2, §3, §4

[4] = test system: SKHEP1 (liver); conditions: Homo sapiens, SK-HEP1, 72 h, read-out: IC50 inhibition of cell growth
Experimental: as §1, §2, §3, §4

[5] = test system: HT1080 (connective tissue); conditions: Homo sapiens, HT-1080, 72 h, read-out: IC50 inhibition of cell growth
Experimental: as §1, §2, §3, §4

[6] = test system: NCIH82 (lung); conditions: Homo sapiens, NCI-H82, 72 h, read-out: IC50 inhibition of cell growth
Experimental: as §1, §2, §3, §4

[7] = test system: SKLMS1 (uterus); conditions: Homo sapiens, SK-LMS-1, 72 h, read-out: IC50 inhibition of cell growth
Experimental: as §1, §2, §3, §4

[8] = test system: T24 (bladder); conditions: 72 h, read-out: IC50 inhibition of cell growth
Experimental: as §1, §2, §3, §4

[9] = test system: JIMT1 (breast); conditions: Homo sapiens, JIMT-1, 72 h, read-out: IC50 inhibition of cell growth
Experimental: as §1, §2, §3, §4

[10] = test system: SF268 (brain); conditions: Homo sapiens, SF-268, 72 h, read-out: IC50 inhibition of cell growth
Experimental: as §1, §2, §3, §4

[11] = test system: U87MG (brain); conditions: Homo sapiens, U-87 MG, 72 h, read-out: IC50 inhibition of cell growth
Experimental: as §1, §2, §3, §4

[12] = test system: ASPC1 (pancreas); conditions: Homo sapiens, 72 h, read-out: IC50 inhibition of cell growth
Experimental: as §1, §2, §3, §4

[13] = test system: HS578T (breast); conditions: Homo sapiens, Hs-578T, 72 h, read-out: IC50 inhibition of cell growth
Experimental: as §1, §2, §3, §4

[14] = test system: NCIH292 (lung); conditions: Homo sapiens, NCI-H292, 72 h, read-out: IC50 inhibition of cell growth
Experimental: as §1, §2, §3, §4

[15] = test system: CAKI1 (kidney); conditions: Homo sapiens, CAKI-1, 72 h, read-out: IC50 inhibition of cell growth
Experimental: as §1, §2, §3, §4

[16] = test system: DU145 (prostate); conditions: Homo sapiens, DU-145, 72 h, read-out: IC50 inhibition of cell growth
Experimental: as §1, §2, §3, §4

[17] = test system: OVCAR3 (ovary); conditions: Homo sapiens, OVCAR-3, 72 h, read-out: IC50 inhibition of cell growth
Experimental: as §1, §2, §3, §4

[18] = test system: DLD1 (colon); conditions: Homo sapiens, DLD-1, 72 h, read-out: IC50 inhibition of cell growth
Experimental: as §1, §2, §3, §4

[19] = test system: SKMEL28 (skin); conditions: Homo sapiens, SK-MEL-28, 72 h, read-out: IC50 inhibition of cell growth
Experimental: as §1, §2, §3, §4

[20] = test system: MDAMB468 (breast); conditions: Homo sapiens, MDA-MB-468, 72 h, read-out: IC50 inhibition of cell growth
Experimental: as §1, §2, §3, §4

[21] = test system: CASKI (cervix); conditions: Homo sapiens, Ca-Ski, 72 h, read-out: IC50 inhibition of cell growth
Experimental: as §1, §2, §3, §4

[22] = test system: IGROV1 (ovary); conditions: Homo sapiens, IGROV-1, 72 h, read-out: IC50 inhibition of cell growth
Experimental: as §1, §2, §3, §4

[23] = test system: 786O (kidney); conditions: Homo sapiens, 786-0, 72 h, read-out: IC50 inhibition of cell growth
Experimental: as §1, §2, §3, §4

[24] = test system: 5637 (bladder); conditions: 72 h, read-out: IC50 inhibition of cell growth
Experimental: as §1, §2, §3, §4

Measured: pIC50

COc1cccc(C(=O)Nc2nc3cc4c(cc3[nH]2)OC(F)(F)O4)c1 [Compound 56, N-(2,2-difluoro-5H-[1,3]dioxolo[4′,5′:4,5]benzo[1,2-d]imidazol-6-yl)-3-methoxybenzamide]
≥ 6.00: all assays above

Reference: patent publication US20170240556A1, “BIFLUORODIOXALANE-AMINO-BENZIMIDAZOLE KINASE INHIBITORS FOR THE TREATMENT OF CANCER, AUTOIMMUNEINFLAMMATION AND CNS DISORDERS” (4SC DISCOVERY GMBH, priority 2012, published 2017)
